Measurements as given in ChEMBL document CHEMBL1201862, “PubChem BioAssay data set” (2004).
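Step 1: Grow cells in 96-well plates. Step 2: Expose to compound for 48 hours at 5 concentrations. Step 3: Interpolate endpoints linearly; if unreached, use highest concentration. GI50 = concentration required for 50% inhibition of growth.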 The source made the active and inactive calls. No stated cut-off is given here; in the data, active = GI50 up to about 1.1 µM and inactive = higher.

Assays:
Assay in all cases: growth of human tumour cells (NCI), 48 h
[1] = test system: PC-3
[2] = test system: K562
[3] = test system: SF-539
[4] = test system: NCI-H522
[5] = test system: 786-0
[6] = test system: TK-10
[7] = test system: RXF 393
[8] = test system: OVCAR-3
[9] = test system: ACHN
[10] = test system: KM12
[11] = test system: HCC 2998
[12] = test system: SK-MEL-28
[13] = test system: HL-60
[14] = test system: MDA-N
[15] = test system: SNB-19
[16] = test system: SF-268
[17] = test system: SN12C
[18] = test system: UACC-62
[19] = test system: MOLT-4
[20] = test system: NCI-H460

Measured: GI50

COc1cccc(NC(=O)CC(=O)N2N=C(C)C(/N=N/c3ccc(C(=O)O)cc3)C2=O)c1 (stereo not given)
inactive: [1] > 100 µM | [2] > 100 µM | [3] > 100 µM | [4] 43.1 µM | [5] > 100 µM | [6] > 100 µM | [7] > 100 µM | [8] > 100 µM | [9] > 100 µM | [10] > 100 µM | [11] > 100 µM | [12] > 100 µM | [13] > 100 µM | [14] > 100 µM | [15] > 100 µM | [16] > 100 µM | [17] > 100 µM | [18] > 100 µM

C=C1CCN2CC[C@@H](OC(=O)/C(C)=C\C)[C@@H]12
inactive: [19] > 100 µM | [1] > 100 µM | [2] > 100 µM | [3] > 100 µM | [4] > 100 µM | [5] > 100 µM | [6] > 100 µM | [7] > 100 µM | [8] > 100 µM | [9] > 100 µM | [20] > 100 µM | [10] > 100 µM | [11] > 100 µM | [12] > 100 µM | [14] > 100 µM | [15] > 100 µM | [16] > 100 µM | [17] > 100 µM | [18] > 100 µM

CCOC(C)O[C@H]1C(=O)OCC1(C)C (stereo not given in full)
inactive: [19] 34.9 µM | [1] > 100 µM | [2] 80.7 µM | [3] > 100 µM | [5] > 100 µM | [6] > 100 µM | [7] > 100 µM | [8] > 100 µM | [9] > 100 µM | [20] > 100 µM | [10] > 100 µM | [11] > 100 µM | [12] > 100 µM | [13] > 100 µM | [14] > 100 µM | [15] > 100 µM | [16] > 100 µM | [18] > 100 µM

CCOC(=O)C(NC(=O)Nc1ccccc1F)(OC)C(F)(F)F (stereo not given)
inactive: [19] > 100 µM | [1] > 100 µM | [2] > 100 µM | [3] > 100 µM | [5] > 100 µM | [6] > 100 µM | [7] > 100 µM | [9] > 100 µM | [11] > 100 µM | [12] > 100 µM | [13] > 100 µM | [14] > 100 µM | [15] > 100 µM | [16] > 100 µM | [17] > 100 µM

C[Si](C)(C)C#CCOC=C1CC1
inactive: [19] > 100 µM | [1] > 100 µM | [2] > 100 µM | [3] > 100 µM | [4] > 100 µM | [5] 47.1 µM | [6] > 100 µM | [7] 3.45 µM | [9] > 100 µM | [20] > 100 µM | [10] > 100 µM | [11] > 100 µM | [12] > 100 µM | [13] 35.2 µM | [14] > 100 µM | [15] > 100 µM | [16] > 100 µM | [17] > 100 µM | [18] > 100 µM

[O-][n+]1c(CN2CCCCC2)nc2cccc3c2c1-c1ccccc1-3
inactive: [19] > 100 µM | [1] 31.3 µM | [2] 77.6 µM | [3] 23.9 µM | [5] 16.7 µM | [6] 27.2 µM | [7] 13.7 µM | [8] 21.6 µM | [9] 18.6 µM | [20] 18 µM | [10] 26.4 µM | [11] 15 µM | [12] 68.5 µM | [13] > 100 µM | [14] 22.4 µM | [15] 23.9 µM | [17] 17.1 µM | [18] 16.4 µM

CN(CC(=O)O)c1ccc(/C=C/c2ccnc3ccccc23)cc1
inactive: [1] 27.4 µM | [2] 23.7 µM | [3] 27.9 µM | [4] 5.47 µM | [5] 28.1 µM | [6] 19.7 µM | [7] 14.8 µM | [8] 27.9 µM | [9] 34.4 µM | [20] 21.4 µM | [10] 13.2 µM | [11] 25.4 µM | [12] 40 µM | [13] 11.4 µM | [14] 12.5 µM | [15] 30.1 µM | [16] 19.1 µM | [17] 25.5 µM | [18] 19.6 µM

O=S(=O)(O)c1ccc(Nc2ccnc3cc(Cl)ccc23)cc1
inactive: [19] > 100 µM | [1] > 100 µM | [2] > 100 µM | [3] > 100 µM | [4] > 100 µM | [5] > 100 µM | [6] > 100 µM | [7] > 100 µM | [8] > 100 µM | [9] > 100 µM | [10] > 100 µM | [11] > 100 µM | [12] > 100 µM | [13] > 100 µM | [14] > 100 µM | [15] > 100 µM | [16] > 100 µM | [17] > 100 µM | [18] > 100 µM
